What was measured:
in vivo [1] = details: female, rat
[2] = Description: Safety and tolerability endpoints will include monitoring and recording of AEs, clinical laboratory test results (hematology, serum chemistry, and urinalysis), vital sign measurements, 12-lead ECG results, and physical examination findings. The PA/MMA cohort will also be screened for suicidal ideation using the C-SSRS.
clinical = details: for half-life / AUC / Cmax / Tmax: human, plasma; for AUC: AUCtau; for AUC / Cmax: arithmetic mean
Description: Following the screening period, eligible subjects will be admitted to the clinical unit on Day 1. All subjects will receive the study drug for 7 days starting on Day 1. […] Dosing frequency and any instructions regarding meal intake will depend on data from the SAD cohorts and will be provided in a separate document. The dosing duration may be increased to up to 14 days to allow for achievement of 3 half-lives. […] Subjects will return for an EOS visit on Day 15 or up to approximately 5 half-lives up to a maximum of Day 42 (whichever is longer).
The tentative starting dose for this portion of the study will be 30 mg daily. Dose escalation for Cohort 2 and beyond will be based on the safety, tolerability, and PK of the previous cohort. […] Planned doses for subsequent cohorts are 60, 120, 200, and 300 mg daily; the maximum dose increment between cohorts will be no more than 2 times the previous dose.

[3] = tested on: Pcca^−/−PCCA(A138T)^tg/0 mice; assay: Total CoA in liver and brain of Pcca−/−PCCA(A138T)tg/0 mice; format: in vivo; details: 22.5 ppm (3 mg/kg) in chow for 30 days after weaning
Description: Water was supplied ad libitum.

[4] = tested on: Pcca^−/−PCCA(A138T)^tg/0 mice; assay: Plasma and urine acyl carnitines in Pcca−/−PCCA(A138T)tg/0 mice; format: in vivo
Method: The mice were maintained at 72′±2° F., humidity 50%±10% and a 14-hour light/10-hour dark cycle with the dark cycle starting at 20:00 hrs. Water was supplied ad libitum. The mice were randomized into the treatment arms to achieve a normal weight distribution. […] Blood was collected in ethylenediaminetetraacetic acid (EDTA) at P50 by cardiac puncture from isoflurane-anesthetized animals, plasma was prepared and stored frozen at −80° C. until analysis. Liver, brain, and heart were quickly excised, immediately flash frozen in liquid nitrogen and stored frozen at −80° C. until analysis.
Metabolites from Urine and Plasma: Water was added to thawed 24-hr urine samples to a final volume of 1 mL for each mouse. To 100 μL of urine or 20 μL of plasma, warfarin standard was added at a final concentration of 0.2 μM and the sample was incubated at −80° C. for 1 hour. The sample was centrifuged at 6000×g for 10 minutes to remove precipitants and the supernatant was analyzed by LC/MS/MS. Analysis was performed using a Shimadzu Prominence UFLC attached to a QTrap 4500 equipped with a Turbo V ion source (Sciex). […] The system was controlled by the Analyst® software (Sciex) and analyzed with MultiQuant™ 3.0.2 software (Sciex). The relative amount of metabolite was normalized to the amount of warfarin then the ratio to creatinine was calculated.

[5] = oral gavage 10 mg/animal and 200 mg/animal; tablet or suspension
in vivo [6] = details: dog
PanK = assay: Phase 1 pharmacodynamic biomarkers, plasma pantothenate and whole blood acetyl-CoA; format: in vivo, human; details: MAD cohorts at steady-state
Description: Pharmacodynamic biomarker assessments will include whole blood acetyl-CoA, plasma pantothenate, and other exploratory PD biomarkers.
Pharmacodynamic biomarker samples will be analyzed using a validated assay for the PD assessments.
In MAD cohorts at steady-state, decreases in the PanK substrate, pantothenate, were observed, concurrent with increases in the PanK product, acetyl-CoA, in whole blood.

[7] = tested on: C57BL/6J (wild-type) mice; details: oral gavage QD 0.1, 1, 3, 10 or 30 mg/kg for one week; four hours after last dose
Method: Tissue Total CoA Determinations: Total CoA was quantified as described earlier. Either frozen brain or liver tissue (30-40 mg) was homogenized in 1 mM potassium hydroxide (KOH) to hydrolyze all the acyl chains and then the CoA was derivatized with monobromobimane (mBBr). […] The retention time was determined by running a CoA standard before each set of samples. Total CoA was quantified using a standard curve generated with known amounts of CoA.
Control animals were administered 0.5% methylcellulose QD for one week. Four hours after the last dose, the animals were sacrificed, plasma and tissues were collected, and CoA levels were determined in tissues. […] Statistical significance was determined for total CoA using a Student's t-test calculated with GraphPad software and P-values compared to the control animals are noted on the figure panels.

[8] = rat, in vivo
[9] = tested on: Pank1,2 neural knockout mice; assay: Survival of Pank1,2 neural knockout mice; format: in vivo; details: 75 ppm in chow from postnatal day 14; untreated ~50%
Description: Water was supplied ad libitum. Mice were maintained on a chow diet with purified ingredients containing 19% kcal protein, 66.5% kcal carbohydrate and 14.4% kcal fat (Envigo #TD170542) which was similar to standard rodent chow (LabDiet #5013). The mice were randomized into the treatment arms. […] However, this is an approximation, as SynCre^+Pank1^−/−Pank2^−/− mice both weigh less and eat less than wild-type mice. […] At the end of the dark cycle, individual mice were placed in an open rectangular arena (36.8 cm×43.2 cm) for 5 min during the light cycle and motor activity was evaluated using a video tracking system provided by HVS Image with associated 2100 Plus software (San Diego, CA, USA). Each animal was placed in the center of the arena under standard overhead lighting and the total distance traveled and the percentage of time in motion were recorded. The behaviors of age-matched control animals, treated with Compound (I) and untreated, were quantified and compared. […] Liver, forebrain and hindbrain were quickly excised, approximately 30-50 mg pieces were immediately flash frozen in liquid N2 and stored frozen at −80° C. until analysis. The plasma and tissue samples were used for Compound (I) and total CoA determinations.
Following analysis of movement, all animals were sacrificed at postnatal Day 45 for examination of tissue CoA levels.

[10] = in vivo
Method: Holter monitoring will be obtained as indicated in the SOE. Blood and urine for PK and PD will be obtained and safety assessments will be performed. In addition, Cohort 3 (70 mg cohort) will have CSF obtained via lumbar puncture for PK assessment.

[11] = of all Compound (I) treated subjects

With `O=C(Cc1ccc(C2CC2)c(F)c1)N1CCN(c2ccc(Cl)nn2)CC1` [Compound (I), 1-(4-(6-chloropyridazin-3-yl)piperazin-1-yl)-2-(4-cyclopropyl-3-fluorophenyl)ethan-1-one] the NOAEL at 13 weeks (in vivo [1]) was 8 mg/kg/day, the Tolerability ([2]; 60 healthy adult subjects, Phase 1 study) was “generally well-tolerated” and the “Mild treatment-related TEAE abdominal pain” value [2, 11] was 1.7%. The “Mild treatment-related TEAE headache” value [2, 11] was 5%, the “Mild treatment-related TEAE nausea” value [2, 11] was 1.7% and the “Urinary excretion of Compound (I)” value (clinical; healthy subjects) was “negligible”. For the same molecule, the half-life (clinical; oral) was 6 to 8 h, the half-life (clinical; oral, 30 mg) was 7.55 h and the AUC (clinical; oral, 30 mg, 30 mg QD, Day 1, AUC0-24) was 476 ng·h/mL. The AUC (clinical; oral, 30 mg, 30 mg QD, Day 7, AUC0-24) was 913 ng·h/mL, the Cmax (clinical; oral, 30 mg, 30 mg QD, Day 1) was 98.3 ng/mL and the Cmax (clinical; oral, 30 mg, 30 mg QD, Day 7) was 158 ng/mL. The Tmax (clinical; oral, 30 mg, Tmax, 30 mg QD, Day 1, median) was 1.5 h, the Tmax (clinical; oral, 30 mg, Tmax, 30 mg QD, Day 7, median) was 1.5 h and the AUC (clinical; oral, 50 mg, 50 mg Q12H, Day 1, AUC0-12) was 925 ng·h/mL. It also gave a Cmax (clinical; oral, 50 mg, 50 mg Q12H, Day 1) of 155 ng/mL, a Tmax (clinical; oral, 50 mg, Tmax, 50 mg Q12H, Day 1, median) of 1.5 h and a half-life (clinical; oral, 60 mg) of 6.7 h. For the same molecule, the AUC (clinical; oral, 60 mg, 60 mg QD, Day 1, AUC0-24) was 1670 ng·h/mL, the AUC (clinical; oral, 60 mg, 60 mg QD, Day 7, AUC0-24) was 4050 ng·h/mL and the Cmax (clinical; oral, 60 mg, 60 mg QD, Day 1) was 240 ng/mL. It also gave a Cmax (clinical; oral, 60 mg, 60 mg QD, Day 7) of 505 ng/mL, a Tmax (clinical; oral, 60 mg, Tmax, 60 mg QD, Day 1, median) of 1.75 h and a Tmax (clinical; oral, 60 mg, Tmax, 60 mg QD, Day 7, median) of 2.01 h. For the same molecule, the half-life (clinical; oral, 70 mg) was 6.83 h, the AUC (clinical; oral, 70 mg, 70 mg QD, Day 7, AUC0-24) was 2950 ng·h/mL and the Cmax (clinical; oral, 70 mg, 70 mg QD, Day 1) was 205 ng/mL. It also gave a Cmax (clinical; oral, 70 mg, 70 mg QD, Day 7) of 400 ng/mL, a Tmax (clinical; oral, 70 mg, Tmax, 70 mg QD, Day 1, median) of 1.5 h and a Tmax (clinical; oral, 70 mg, Tmax, 70 mg QD, Day 7, median) of 1.5 h. The Tmax (clinical; po, Tmax after oral administration, healthy subjects, over cohorts) was 1 to 2 h, the “Increase in exposure with dose” value (clinical; total daily dose increased from 30 mg to 100 mg) was “more than dose-proportional” and the “Increase of brain total CoA compared to untreated mice” value ([3]; brain) was about 44%. For the same molecule, the “Increase of liver total CoA compared to untreated mice” value ([3]; liver) was about 45%, the “Decreased free carnitine and C2-carnitine levels in plasma and urine” value ([4]; 22.5 ppm (3 mg/kg) in chow for 30 days after weaning) was “rescued” and the C3-carnitine in plasma ([4]; 22.5 ppm (3 mg/kg) in chow, plasma) was “decreased”. For the same molecule, the “Dose proportionality of exposure as defined by AUC0-24” value [5] was “dose proportional”, the “Dose proportionality of exposure as defined by Cmax” value [5] was “close to dose proportional” and the clearance (in vivo [6]; iv) was 16.9 mL/min/kg. For the same molecule, the bioavailability (in vivo [6]; po) was 29.8%, the “Plasma Compound (I) concentration up to which increases in whole blood acetyl-CoA were observed” value (PanK) was about 200 mg/mL and the Plasma pantothenate (PanK; healthy adult subjects) was “decreased”. The “Whole blood acetyl-CoA” value (PanK; healthy adult subjects) was “increased”, the “Brain (forebrain and hindbrain) total CoA response” value [7] was “dose-responsive increase” and the “Accumulation after multiple doses” value [8] was “Less than 2 fold”. The “Exposures in male rats versus female rats at the same doses” value [8] was “lower exposures than female rats”, the “Probability of survival at postnatal Day 45” value [9] was −70% and the “Blood brain barrier penetration” value [10] was “crossed the blood brain barrier”.

— patent US20260183283A1 (priority 2022, published 2026)
